The values that follow come from patent US20210395327A1, “Growth Hormone-Releasing Hormone Antagonists and Uses Thereof” (United States Government As Represented By The Department …, priority 2019, published 2021).

Structures are written as SMILES. Non-standard residues stand in square brackets, D forms with d. Residues, ends and D or L forms follow the SMILES beside them. *: point of attachment. Phenylacetyl(2,3,4,5,6-F5) = O=C(Cc1c(F)c(F)c(F)c(F)c1F)*; Phe(F5) = N[C@@H](Cc1c(F)c(F)c(F)c(F)c1F)C(=O)O; hArg = N=C(N)NCCCC[C@H](N)C(=O)O; 12Ado = NCCCCCCCCCCCC(=O)O; Nle = CCCC[C@H](N)C(=O)O; Orn = NCCC[C@H](N)C(=O)O; Abu = CC[C@H](N)C(=O)O; PhAc = O=C(Cc1ccccc1)*

Experiment [1] deals with lung cancer HCC827 xenograft. As to the kind of experiment: Xenograft tumor growth in nude mice, HCC827. It is filed as in vivo. As to conditions: Table 4B, Lung Ca HCC827, 7 weeks, 5 μg/day s.c.; for % Inhibition: vs control. The method, then:
(§1) The peptides' activity was compared with GHRH antagonist MIA-602. All statistical analyzses were performed from comparing GHRA antagonists to non-treated tumor (control).
(§2) Peptides and chemicals. GHRH antagonists MIA-602 and AVR-GHRH antagonists (see Table 2 above) were synthesized by solid phase methods and purified by HPLC. The peptides were dissolved in DMSO and further diluted in 10% 1,2-propanediol. The final concentration of peptides was 50 µg/ml in 10% 1,2-propanediol containing 0.1% of DMSO.
(§3) Cell culture. Human cancer cell lines including pancreatic (PANC-1 and CFPAC-1), lung (HCC827 and H460), stomach (NCI-N87), prostate (PC3), brest (MX-1 and HCC-1806), colorectal (HT-29), and ovarian (SK-OV-3 and OVCAR-3) were obtained from the American Type Culture Collection (ATCC) and cultured at 37° C. in a humidified 95% air/5% CO2 atmosphere in the medium recommended by ATCC.
(§4) Xenograft models of human cancers in nude mice. Female athymic (NCr nu/nu) nude mice, 5- to 6-weeks-old, obtained from the Envigo labs (Tampa, Fla.), were housed in laminar airflow cabinets under pathogen-free conditions with a 12-h light/12-h dark schedule, and were fed autoclaved standard chow and water. To generate mice with xenografted tumors, tumor xenografts were initiated by subcutaneous (s.c.) injection of 107 human cancer cells into female nude mice. After about 4 weeks the resulting tumors were dissected and collected after removing necrosis tissues. The tumors were then cut into particles with size of 3 mm3 and transplanted s.c. by trocar needle into experimental animals. When tumors grew to the size of 50-60 mm3 (by volume), mice were randomized into groups and treated daily for 4-8 weeks by subcutaneous administration of 5 μg of GHRH antagonists MIA-602 or AVR-compounds (2-10 μg as indicated), or vehicle solutions (0.1% DMSO in 10% 1,2-propanediol) respectively. Tumor sizes were measured weekly.
(§5) Statistical analysis. One-way ANOVA followed by Bonferroni comparison were performed. Data are expressed as Mean±SEM. To determine statistical significance between animal groups, two-tailed Student's t-test was conducted. Differences were considered significant when p<0.05.
(§6) Results. […] FIG. 1A-N represents in vivo inhibition of tumor growth during the treatment with GHRH antagonist MIA-602 and selected AVR antagonists in nude mice xenografted with various human tumors including pancreatic cancer PANC-1 (FIG. 1A) and CFPAC-1 (FIG. 1I); lung cancer HCC827 (FIGS. 1B, C) and H460 (FIG. 1H); stomach cancer N87 (FIGS. 1D-F); colon cancer HT-29 (FIG. 1G); breast cancer MX-1 and HCC-1806 (FIGS. 1J, K); ovarian cancer SK-OV-3 and OVACAR-3 (FIGS. 1 L, M) and prostate cancer PC3 (FIG. 1N). See also Table 5.

The test system of experiment [2] is NCI-N87 stomach cancer cells. As to the kind of experiment: In vitro cell viability (CellTiter 96), N87. It is filed as cell-based, human. The settings on record: for In vitro relative inhibitory potency in comparison to MIA-602, NCI-N87: Table 3B, 5 μM for 72 H, MIA-602 = 1. Summed up:
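Cells grown to ~60% confluence, serum-starved 24 h in 0.5% FBS medium, then exposed to compounds at 5 μM (some at 2 μM) or 0.1% DMSO vehicle for 72 h, in quintuplicate, medium changed every 48 h. Viability read by MTS-type CellTiter 96 AQueous assay; values are inhibitory potency relative to MIA602.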

Experiment [3] relates to stomach cancer N87 xenograft. As to the kind of experiment: Xenograft tumor growth in nude mice, N87. It is filed as in vivo. As to conditions: for % Inhibition: vs control. The method, then:
as §1, §2, §3
as §4, with “mice were randomized into groups and treated daily for 4-8 weeks by subcutaneous administration” left out
as §5, §6

A further experiment has as its system HT-29 colon cancer cells. Put plainly: In vitro cell viability, HT-29. The class given is cell-based, human. The settings on record: Table 3B; 5 μM for 72 H; MIA-602 = 1. The method, then: The inhibitory effects of the various synthesized GHRH antagonists were tested in cell proliferation assays in various human cancer cell lines including stomach cancer (KATOIII, N87), colon cancer (HT-29), urothelial cancer (J82, RT4), pancreatic cancer (PANC-1, CFPAC-1), prostatic cancer (PC3), breast cancer (MX-1, HCC1806), ovarian cancer (SK-OV-3, OVCAR-3) and lung cancer (HCC827, H460).
Cell culture. Human cancer cell lines including pancreatic (PANC-1 and CFPAC-1), lung (HCC827 and H460), stomach (NCI-N87 and KATOIII), urothelial (J82, RT4), prostatic (PC3), breast (MX-1 and HCC 1806), colorectal (HT-29), and ovarian (SK-OV-3 and OVCAR-3) were obtained from the American Type Culture Collection (ATCC) and cultured at 37° C. in a humidified 95% air/5% CO2 atmosphere in the medium recommended by ATCC.
In vitro cell viability. Cell viability was analyzed as follows: cancer cells including pancreatic (PANC-1 and CFPAC-1), lung (HCC827 and H460), stomach (NCI-N87 and KATOIII), urothelial (J82, RT4), prostatic (PC3) and breast (MX-1 and HCC 1806), colorectal (HT-29) and ovarian (SK-OV-3 and OVCAR-3) were grown on 96 well plates to ˜60% confluence, the cells were starved for 24 h in culture medium containing 0.5% FBS. Cells were then treated with GHRH antagonists MIA602 AVR compounds at concentrations of 1, 2.5 or 5 μM, or vehicle (0.1% DMSO) in quintuplicates for 72 hours. The medium was replaced every 48 hours. Cell viability was measured using CellTiter 96 aqueous one solution kit (Promega). Inhibitory effects of tested AVR compounds in comparison to that of MIA602 are presented as inhibitory potency.
Inhibitory effects of selected AVR compounds in comparison to that of MIA602 are presented as inhibitory potency (e.g., percentage of inhibition). […] The cell lines tested including lung cancer HCC827 (FIG. 2A), pancreatic cancer CFPAC-1 (FIG. 2B), stomach cancer N87 (FIG. 2C), colon cancer HT-29 (FIG. 2D), breast cancers MX-1 and HCC1806 (FIGS. 2 E, F). Based on the results of cell proliferation assay after cancer cells were treated with antagonist at concentration of 5 μM for 72H, the relative inhibitory potency of AVR antagonists in comparison to MIA-602 is summarized in Table 3 A and B. Over 60 AVR compounds were tested in 12 cancer cell lines.
Based on the results of cell proliferation assay after cancer cells were treated with antagonist at concentration of 5 µM for 72H, * at concentration of 2 µM for 72 H.

Setting [4] is: Table 4D, Stomach Ca N87, 10 weeks, 2 μg/day s.c.
The mark [5] stands for this setting: Table 4D, Stomach Ca N87, 10 weeks, 5 μg/day s.c.
[6] abbreviates: Table 4E, Stomach Ca N87, 4 weeks, 5 μg/day s.c.
Setting [7] is: Table 4F, Stomach Ca N87, 4 weeks, 5 μg/day s.c.

The term % Inhibition denotes how much of the control response was suppressed. Higher therefore signals a response far below the control. `CCCC[C@H](NC(=O)[C@@H](NC(=O)[C@H](CC(=O)O)NC(=O)[C@H](CCC(N)=O)NC(=O)[C@H](CC(C)C)NC(=O)[C@H](CC(C)C)NC(=O)[C@H](CCCN)NC(=O)[C@H](Cc1c[nH]cn1)NC(=O)[C@H](C)NC(=O)[C@H](CO)NC(=O)[C@H](CC(C)C)NC(=O)[C@H](CCC(N)=O)NC(=O)[C@H](CC)NC(=O)[C@H](CC(C)C)NC(=O)[C@@H](NC(=O)[C@H](CCCN)NC(=O)[C@H](Cc1c[nH]cn1)NC(=O)[C@H](Cc1ccc(OC)cc1)NC(=O)[C@H](CCCCNC(=N)N)NC(=O)[C@H](C)NC(=O)[C@@H](NC(=O)[C@H](Cc1c(F)c(F)c(F)c(F)c1F)NC(=O)[C@@H](NC(=O)[C@H](C)NC(=O)[C@H](CC(=O)O)NC(=O)[C@@H](CCCNC(=N)N)NC(=O)[C@H](Cc1ccc(O)cc1)NC(=O)CCCCCCCCCCCNC(=O)Cc1ccccc1)[C@@H](C)CC)[C@@H](C)O)C(C)C)[C@@H](C)CC)C(=O)N[C@H](CCCNC(=N)N)C(=O)N[C@@H](CCCCNC(=N)N)C(N)=O` [MIA-602, PhAC-Ada, Tyr D-Arg, Asp, Ala, Ile, 5FPhe, Thr, Ala, Har, Tyr(Me), His, Orn, Val, Leu, Abu, Gin, Leu, Ser, Ala, His, Om, Leu, Leu, Gin, Asp, Ile; Nle, D-Arg, Har NH2, reference compound] ({PhAc-12Ado}-Y[dR]DAI[Phe(F5)]TA[hArg]Y(Me)H[Orn]VL[Abu]QLSAH[Orn]LLQDI[Nle][dR][hArg]-NH2): the “Tumor Growth %” value in experiment [1] was 662.2%; in experiment [3] (setting [6]) it was 427.20%; in experiment [3] (setting [7]) it was 427.20%. In addition, the “% Inhibition” value in experiment [1] is listed as 49.5%; in experiment [3] (setting [4]), 13.0%; in experiment [3] (setting [5]) it was 37.3%; in experiment [3] (setting [6]), 52.1%; in experiment [3] (setting [7]), 52.1%. For the same compound, the “In vitro relative inhibitory potency in comparison to MIA-602, NCI-N87” value in experiment [2] was 1. Besides, the “relative inhibitory potency in comparison to MIA-602, Stomach N87” value in experiment [2] (antagonist 5 μM for 72 h, cell proliferation assay, MIA602 = 1) was determined as 1. Further, the “Tumor Size (mm^3)” value in experiment [3] (setting [4]) stood at 1065.00 mm^3; in experiment [3] (setting [5]) it was 767.00 mm^3. Also, in the experiment with HT-29 colon cancer cells, the “In vitro relative inhibitory potency in comparison to MIA-602, HT-29” value came out at 1.
Take `CCCC[C@H](NC(=O)[C@@H](NC(=O)[C@H](CC(=O)O)NC(=O)[C@H](CCC(N)=O)NC(=O)[C@H](CC(C)C)NC(=O)[C@H](CC(C)C)NC(=O)[C@H](CCCCN)NC(=O)[C@H](CCCNC(=N)N)NC(=O)[C@H](C)NC(=O)[C@H](CO)NC(=O)[C@H](CC(C)C)NC(=O)[C@H](CCC(N)=O)NC(=O)[C@H](CC)NC(=O)[C@H](CC(C)C)NC(=O)[C@@H](NC(=O)[C@H](CCCCN)NC(=O)[C@H](CCCNC(=N)N)NC(=O)[C@H](Cc1ccc(OC)cc1)NC(=O)[C@H](CCCCNC(=N)N)NC(=O)[C@H](C)NC(=O)[C@@H](NC(=O)[C@H](Cc1c(F)c(F)c(F)c(F)c1F)NC(=O)[C@@H](NC(=O)[C@H](C)NC(=O)[C@H](CC(=O)O)NC(=O)[C@@H](CCCNC(=N)N)NC(=O)[C@H](Cc1ccc(O)cc1)NC(=O)CCCCCCCCCCCNC(=O)Cc1c(F)c(F)c(F)c(F)c1F)[C@@H](C)CC)[C@@H](C)O)C(C)C)[C@@H](C)CC)C(=O)N[C@H](CCCNC(=N)N)C(=O)N[C@@H](CCCCNC(=N)N)C(=O)NCCCCCCCCCCCC(N)=O` [AVR-352, 5FPhAC-Ada-Tyr-DArg-Asp-Ala-Ile-5FPhe-Thr-Ala-Har-Tyr(Me)-Arg-Lys-Val-Leu-Abu-Gln-Leu-Ser-Ala-Arg-Lys-Leu-Leu-Gln-Asp-Ile-Nle-DArg-Har-Ada-NH2] ({Phenylacetyl(2,3,4,5,6-F5)-12Ado}-Y[dR]DAI[Phe(F5)]TA[hArg]Y(Me)RKVL[Abu]QLSARKLLQDI[Nle][dR][hArg][12Ado]-NH2): in experiment [1], the “Tumor Growth %” value came to 371.7% and the “% Inhibition” value is 71.6%. In experiment [2], the “In vitro relative inhibitory potency in comparison to MIA-602, NCI-N87” value stood at 1.809. In addition, in the experiment with HT-29 colon cancer cells, the “In vitro relative inhibitory potency in comparison to MIA-602, HT-29” value is given as 1.197.
